Measurements from PMC7199333, “Efficacy and safety of lanreotide autogel compared with lanreotide 40 mg prolonged release in Chinese patients with active acromegaly: results from a phase 3, prospective, randomized, and open-label study (LANTERN)” (BMC Endocrine Disorders, 2020).

How the values were obtained:
[1] = system: human somatostatin receptor 2; design: method as in PMID 7988476; details: selective somatostatin receptor subtype agonist; cited from earlier work
[2] = cited from earlier work
Text: Somatostatin analogs (SSAs) are the preferred type of medical therapy used to reduce GH secretion. Patients who have persistent disease following surgical resection are recommended treatment with the first-generation long acting SSAs, octreotide long-acting release (LAR) or lanreotide autogel. Lanreotide is a synthetic octapeptide analog of natural somatostatin with a longer half-life (t½) than the native molecule, and a selective somatostatin receptor subtype agonist with a high affinity for human somatostatin receptors 2 and 5 [5], which are commonly expressed at both the mRNA [6] ... || Steady-state PK was achieved after the administration of four lanreotide autogel doses. […] Similarly, Bronstein and colleagues reported a steady state Cmin (equivalent to Ctrough) of 3.76 ng/mL [19].

[3] = system: human somatostatin receptor 5; design: method as in PMID 7988476; details: selective somatostatin receptor subtype agonist; cited from earlier work
[4] = Serum lanreotide pharmacokinetics (non-compartmental); type: in vivo, human; details: lanreotide autogel; fourth titrated dose 120 mg normalized to 90 mg vs first dose of 90 mg; PK subgroup
Method: Lanreotide autogel – pre-dose serum samples were taken at weeks 1, 13, 17, and 29; sampling around 4 h after treatment at weeks 13 and 17 and at the end of study (Week 33)/early withdrawal visit. For a subset of patients in the PK subgroup, additional samples were taken during the study and during the PK extension phase: after the first administration of 90 mg at Week 1 (1, 4, 6, 8, 12, 24, and 72 h), Week 2 (168 h), Week 3 (336 h), Week 4 (504 h) and prior to the next administration at Week 5 (672 h); after the fourth (last) administration of the titrated dose at Week 29 (1, 4, 6, 8, 12, 24, and 72 h), Week 30 (168 h), Week 31 (336 h), Week 32 (504 h), and at Week 37 (1344 h) and Week 41 (2016 h).
Lanreotide 40 mg PR – pre-dose serum samples were taken at weeks 1, 2, 13, 16, and at the end-of-study/early withdrawal visit (all taken shortly before treatment) for all patients.
PK endpoints included trough lanreotide concentrations (Ctrough i.e. observed serum concentration at the end of the dosing interval) prior to the fourth, fifth and eighth administrations and at the end-of-study treatment visit with lanreotide autogel, and prior to the second, tenth and twelfth administrations and at the end-of-study visit with lanreotide 40 mg PR. Following a similar approach as reported by Bronstein and colleagues, a non-compartmental PK analysis was performed for the lanreotide autogel PK subgroup to provide individual PK parameters over a 4-week dosing interval after the first and last administration of study drug (i.e. steady state): maximum plasma concentration (Cmax), time to maximum plasma concentration (tmax), area under the concentration–time curve over a 4-week dosing interval (AUCtau), Ctrough and elimination t½ [19].
Additional parameters were estimated, comparing lanreotide PK after Week 1 and Week 29 after normalization to a dose of 90 mg: accumulation ratio for Ctrough (Rtrough) = Ctrough,Week 29/Ctrough,Week 1; accumulation ratio for Cmax (Rmax) = Cmax,Week 29/Cmax,Week 1; accumulation ratio for AUCtau (RAUC) = AUCtau, Week 29/AUCtau, Week 1.

CC(C)[C@@H]1NC(=O)[C@H](CCCCN)NC(=O)[C@@H](Cc2c[nH]c3ccccc23)NC(=O)[C@H](Cc2ccc(O)cc2)NC(=O)[C@@H](NC(=O)[C@H](N)Cc2ccc3ccccc3c2)CSSC[C@@H](C(=O)N[C@H](C(N)=O)[C@@H](C)O)NC1=O [lanreotide]
Affinity for human somatostatin receptor 2 [1]: high affinity
Half-life (t½) compared with the native molecule (natural somatostatin) [2]: longer
Affinity for human somatostatin receptor 5 [3]: high affinity
Mean RAUC (accumulation ratio for AUCtau, Week 29/Week 1) [4]: 2.33
Mean Rmax (accumulation ratio for Cmax, Week 29/Week 1) [4]: 1.40
Mean Rtrough (accumulation ratio for Ctrough, Week 29/Week 1) [4]: 2.62
